Measured values from patent publication US8895505B2, “Method of treatment of type 2 diabetes” (AdiStem Ltd., priority 2009, dated 2014).
No end group written: not given here.

Key:
type 2 diabetic patients = experiment: TB4-7 trial: randomized, double-blind, placebo-controlled 2-month trial in type 2 diabetic patients; type: in vivo, human; settings: 10 mg s.c. twice a week for 2 months
Method: The inventors have performed a single-center, randomized, double-blind, placebo-controlled 2-month trial of twice a week s.c. injection of 10 mg of TB4-7 (a peptide having the amino acid sequence LKKTETQ (SEQ ID NO:1)) in type 2 diabetic patients inadequately treated with diet/lifestyle or stable doses of common hypoglycemics for at least 3 months. The results from an interim 2 month report of that trial is provided in this example.
Patients with type 2 diabetes for >/=1 year were entered into 2 strata of hemoglobin A(1c) (HbA(1c)) levels: Stratum 1: 8.0% to 9.9%; and Stratum 2: 10.0% to 12.0%.
All subjects began a 1-month single-blind placebo run-in phase, followed by randomization in a 2:1 ratio of active treatment: placebo, to 2 months of double-blind treatment with either TB4-7 or saline placebo. Concurrent oral agents were continued unchanged throughout the study.
The primary outcome was the change in HbA(1c) from randomization; results of each stratum were analyzed independently. […] 14 subjects entered stratum 1 and 12 entered stratum 2.

dogs with canine DM = experiment: Dog diabetes mellitus trials; type: in vivo; settings: 10 mg once a week
Method: A total of 48 dogs took part in the trials. Dogs where put into two groups of 24: one group was injected with the full 10 mg Thymosin beta 4 protein (TB4) once a week; and the other group was injected with 10 mg TB4-7 once a week for four weeks.
Diagnosis criteria of DM and the pre-requisites for study inclusion were:
(1) clinical signs consistent with canine DM, such as polydipsia, polyuria, polyphagia, and weight loss; (2) persistent and 24-hour fasting hyperglycemia (>200 mg/dL) for more than 2 days; (3) persistent glycosuria for more than 2 days; and (4) insulin supplementation required to maintain normal glucose levels.
Glycosylated hemoglobin and blood glucose levels where measured at before every injection and seven days after the last injection.

[1] = Week 0 (before first injection)
[2] = Week 4 (seven days after last injection)

| Substance | adverse events (type 2 diabetic patients) | tolerability (type 2 diabetic patients) | Glucose (dogs with canine DM; [1]) | HbA1c (dogs with canine DM; [1]) | Glucose (dogs with canine DM; Week 1) | HbA1c (dogs with canine DM; Week 1) | Glucose (dogs with canine DM; Week 2) | HbA1c (dogs with canine DM; Week 2) | Glucose (dogs with canine DM; Week 3) | HbA1c (dogs with canine DM; Week 3) | Glucose (dogs with canine DM; [2]) | HbA1c (dogs with canine DM; [2]) |
| --- | --- | --- | --- | --- | --- | --- | --- | --- | --- | --- | --- | --- |
| LKKTETQ [TB4-7, LKKTETQ] | No adverse events | well tolerated |  |  |  |  |  |  |  |  |  |  |
| Thymosin beta 4 (MSDKPDMAEIEKFDKSKLKKTETQEKNPLPSKETIEQEKQAGES; listed as Homo sapiens) [TB4, the full Thymosin beta 4 protein (TB4)] |  |  | 298 ± 64 mg/dL | 7.7 ± 2.2% | 310 ± 78 mg/dL | 7.8 ± 2.3% | 296 ± 64 mg/dL | 7.7 ± 2.2% | 275 ± 72 mg/dL | 7.2 ± 2.6% | 213 ± 82 mg/dL | 6.1 ± 2.9% |
